The source of these data is US12662458B2, “Solid forms of a compound” (Denali Therapeutics Inc., priority 2020, dated 2026).

Data set [1] in a line: Biorelevant media solubility of Forms A and C. The conditions noted are these: for Solubility / Final XRPD: 37° C. It is filed as physicochemical. The protocol:
Biorelevant media solubility of Forms A and C were studied in water, SGF, FaSSIF, and FeSSIF at 37° C. 10-20 mg of Form A or C was weighed into 2-3 mL glass vials and media was added to achieve a solids loading of ˜5 mg/mL. Each slurry was magnetically agitated at 750-1000 rpm at 37° C., filtered via centrifugation, and the supernatant was analyzed by HPLC to determine solubility. In all cases, there was no polymorphic form change observed by XRPD analysis of the filtered solids.

The nature of data set [2]: Solid form stability on storage. It is filed as physicochemical. The method, then:
To evaluate the solid form stability, Forms A and C were stored under 25° C./60% RH (open), 40° C./75% RH (open), and 60° C. for up to 4 weeks. Samples were analyzed by XRPD, TGA, DSC, and HPLC purity.

A short description of data set [3]: Dynamic vapor sorption (hygroscopicity). Type of data set: physicochemical. The conditions noted are these: DVS. The protocol: DVS analysis was carried out using a Surface Measurement System DVS Intrinsic analyzer. The instrument was calibrated with standard weights. Approximately 15-20 mg of sample was loaded into a pan for analysis. The sample was analyzed at 25° C. in 10% relative humidity (RH) steps from 0 to 95% RH (adsorption cycle) and from 95 to 0% RH (desorption cycle). The movement from one step to the next occurred either after satisfying the equilibrium criterion of 0.002% weight change (dm/dt) or, if the equilibrium criterion was not met, after ten hours.

Data set [4] is described as follows: Slurry interconversion of Form A and Form C. It is filed as physicochemical. The protocol: Form A slurry converts to Form C in the presence of Form C seed. For example, Form A (10 mg) and Form C (10 mg) were stirred in saturated IPA/water and MeCN/water at temperatures ranging from 5-60° C. […] Form A could only be prepared in a location uncontaminated with Form C (e.g., locations where From C had not previously existed).

A short description of data set [5]: Plasma PK in monkeys, powder in capsule. It is filed as in vivo. The conditions noted are these: male, cynomolgus monkey, po, 15 mg/kg, single oral 15 mg/kg; for AUC(0-t): read-out: AUC0-24 h; for Tmax: read-out: Tmax. The method, then: Non-naïve male cynomolgus monkeys were used in this study with at least a 7-day washout period prior to dosing Animals were administered micronized Form A, unmicronized Form A, or micronized Form C powder in capsule by single oral administration at 15 mg/kg. The capsules were prepared according to the animals' body weights on dosing day. Blood samples were collected at 0.25, 0.5, 1, 2, 4, 8, 24, 48, and 72 hours post-dose.

The nature of data set [6]: Plasma PK in rats, nanosuspension. Type of data set: in vivo. The following applies: rat, nanosuspension in deionized water, single oral 25 mg/kg. The protocol:
Wistar Han rats were administered a nanosuspension of Form A or Form C as a single oral administration at 25 mg/kg. The nanosuspensions were prepared by suspending nano-milled Form A or Form C in deionized water (2.5 mg/mL) to obtain opaque homogenous suspensions. Blood samples were collected at 0.25, 0.5, 1, 2, 4, 8, 24, 48, and 72 hours post-dose. Concentrations of Compound I in plasma samples were determined by LC/MS/MS.

A short description of data set [7]: Plasma PK in monkeys, nanosuspension. Type of data set: in vivo. The following applies: male, cynomolgus monkey, po, 25 mg/kg, nanosuspension in deionized water, single oral 25 mg/kg. The method, then:
Non-naïve male cynomolgus monkeys were used in this study with at least a 7-day washout period prior to dosing Animals were administered a nanosuspension of Form C as a single oral administration at 25 mg/kg. The nanosuspension was prepared by suspending nano-milled Form C in deionized water (5 mg/mL) to obtain an opaque homogenous suspension. Blood samples were collected at 0.25, 0.5, 1, 2, 4, 8, 24, 48, and 72 hours post-dose. Concentrations of Compound I in plasma samples were determined by LC/MS/MS.
A separate study was performed for a nanosuspension of Form A.

Data set [8] has as its system ISR pathway (H4 ATF4-NLuc cell line). Kind of data set: ATF4 Nano Luciferase reporter integrated stress response (ISR) assay. Type of data set: cell-based. The conditions noted are these: Homo sapiens; H4 ATF4-NLuc (clone 17) cells, 50 um sodium arsenite 6 hours, luminescence. The source says: Cellular stress leads to activation of the integrated stress response pathway through one of four eukaryotic initiation factor 2α kinases and halts global translation, while allowing for the translation of select transcripts like ATF4 (activating transcription factor 4) that are important for the response to cellular stress. During normal conditions, small open reading frames (ORFs) in the 5′ UTR of ATF4 occupy the ribosome and prevent translation of the coding sequence of ATF4. During stress conditions however, the ribosome scans past these upstream ORFs and preferentially begins translation at the coding sequence of ATF4. In this way, the translation, and thus protein level of ATF4 is a readout of ISR pathway activation. Thus, a fusion of the uORFs and the beginning of the coding sequence of ATF to a common cellular reporter like nano-luciferase allows for a sensitive and high-throughput readout of ISR pathway activity.
Compound I, or any of its forms described herein, may be tested in the following assay. […] We utilized this cell line to generate an integrated stress response (ISR) assay to evaluate the activity of ISR pathway inhibitors via luminescence readout. […]
Background: A reporter such as luciferase makes a cellular process visible.

Data set [9] in a line: Storage stability of amorphous Form D. Type of data set: physicochemical. The protocol: Form A was kept in an oven at 150° C. until all solids melted. The melt was kept at 150° C. for 5 minutes and was then taken out of the oven and cooled to room temperature.

A word on the Solubility: it is the concentration that dissolves in the medium under given conditions. The Cmax is the peak of the concentration-time curve. As usually defined, the Tmax is the time at which the peak concentration occurs. What is called IC50 is the midpoint of a concentration-inhibition curve.

In brackets after ≈: the same amount, converted by molar mass.

For `O=C(COc1ccc(Cl)cc1)NC12CC(c3nnc([C@H]4C[C@@H](OC(F)(F)F)C4)o3)(C1)C2` (single isomer, unassigned) [Form A, 2-(4-chlorophenoxy)-N-[3-[5-[cis-3-(trifluoromethoxy)cyclobutyl]-1,3,4-oxadiazol-2-yl]-1-bicyclo[1.1.1]pentanyl]acetamide], the Solubility in data set [1] (FaSSIF) came out at 25 µg/mL (≈ 54.6 µM); in [1] (FeSSIF), 44 µg/mL (≈ 96.1 µM); in [1] (SGF) it was 46 µg/mL (≈ 100 µM); in [1] (Water) it was 9.7 µg/mL (≈ 21.2 µM). The “Final XRPD” value in [1] (filtered solids after slurry in FaSSIF), in data set [1] (filtered solids after slurry in FeSSIF), in data set [1] (filtered solids after slurry in SGF) and in data set [1] (filtered solids after slurry in Water) was “Form A” throughout. Besides, the aqueous solubility entry in [1] (listed as Compound I Form A) is “about 9.7 microgram/mL”. Further, the DSC endotherm was found to be 125.6 °C in [2] (25° C./60% RH (open), 1 week); 125.3 °C in data set [2] (25° C./60% RH (open), 4 week); 125.4 °C in data set [2] (40° C./75% RH (open), 1 week); 125.1 °C in [2] (40° C./75% RH (open), 4 week); 125.2 °C in [2] (60° C. (open), 1 week); 125.1 °C in data set [2] (60° C. (open), 4 week). This compound also returned a DSC endotherm in data set [2] (Initial) of 125.0 °C. In addition, the HPLC purity in [2] (25° C./60% RH (open), 1 week) worked out at 99.3%; in [2] (25° C./60% RH (open), 4 week), 98.8%; in data set [2] (40° C./75% RH (open), 1 week), 99.3%; in data set [2] (40° C./75% RH (open), 4 week) it was 98.7%; in data set [2] (60° C. (open), 1 week), 99.3%; in [2] (60° C. (open), 4 week) it was 98.8%. The compound also registered an HPLC purity in data set [2] (Initial) of 98.5%. Further, the “TGA loss (%, to 150° C.)” value in data set [2] (25° C./60% RH (open), 1 week) is listed as 1.8%; in data set [2] (25° C./60% RH (open), 4 week), 0.6%; in data set [2] (40° C./75% RH (open), 1 week), 0.9%; in data set [2] (40° C./75% RH (open), 4 week), 0.7%; in [2] (60° C. (open), 1 week) it was 0.7%; in [2] (60° C. (open), 4 week), 0.6%. In [2] (Initial), the “TGA loss (%, to 150° C.)” value came to 0.4%. Also, the XRPD entry in [2] (25° C./60% RH (open), 1 week) is “Form A”; in data set [2] (25° C./60% RH (open), 4 week), “Form A”; in [2] (40° C./75% RH (open), 1 week), “Form A”; in data set [2] (40° C./75% RH (open), 4 week) it was “Form A”; in data set [2] (60° C. (open), 1 week) it was “Form A”; in data set [2] (60° C. (open), 4 week), “Form A”. Moreover, the XRPD entry in data set [2] (Initial) was “Form A”. The “solid form stability (form change, weight gain, purity changes)” value in data set [2] (25° C./60% RH (open), 40° C./75% RH (open), 60° C., up to 4 weeks) was “No form change, weight gain, or purity changes”. Moreover, the Hygroscopicity entry in data set [3] was “Non-hygroscopic”. For the same compound, the “weight change / form change after exposure to humidity” value in data set [3] is recorded as “no form change”. The “Results (solid form after slurry)” value is recorded as “Form C” in [4] (ACN/water (1:2), 5 ° C., 8 day); “Form C” in [4] (ACN/water (1:2), 22 ° C., 8 day); “Form C” in [4] (ACN/water (1:2), 60 ° C., 6 day); “Form C” in [4] (IPA/water (1:1), 5 ° C., 8 day); “Form C” in [4] (IPA/water (1:1), 22 ° C., 8 day); “Form C” in [4] (IPA/water (1:1), 60 ° C., 6 day). Also, in [4] (Form A (10 mg) and Form C (10 mg) in saturated IPA/water and MeCN/water, 5-60° C., 6-8 days), the “solid form after slurry by XRPD and DSC” value is “only Form C was present”. Besides, the Cmax was found to be 9.8 ± 4.1 µM in data set [5] (micronized (d90 5)); 5.6 ± 0.4 µM in data set [5] (unmicronized (d90 43)); 105 ± 8 µM in [6] (Wistar Han, po, 25 mg/kg); 25.4 ± 4.1 µM in data set [7]. The AUC(0-t) in data set [5] (micronized (d90 5)) is 154 ± 44 µM·h; in data set [5] (unmicronized (d90 43)), 92 ± 24 µM·h; in data set [6] (Wistar Han, po, 25 mg/kg, read-out: AUC0-48 h), 1700 ± 271 µM·h; in data set [7] (read-out: AUC0-24 h), 451 ± 84 µM·h. Besides, the Tmax in data set [5] (micronized (d90 5)) was 8 h; in [5] (unmicronized (d90 43)), 4 h; in data set [6] (Wistar Han rats, read-out: Tmax) it was 8 h; in data set [7] (read-out: Tmax), 4 h.

`O=C(COc1ccc(Cl)cc1)NC12CC(c3nnc([C@H]4C[C@@H](OC(F)(F)F)C4)o3)(C1)C2` [Compound I, 2-(4-chlorophenoxy)-N-[3-[5-[cis-3-(trifluoromethoxy)cyclobutyl]-1,3,4-oxadiazol-2-yl]-1-bicyclo[1.1.1]pentanyl]acetamide]: the IC50 in data set [8] is under 1000 nM.

On to `O=C(COc1ccc(Cl)cc1)NC12CC(c3nnc([C@H]4C[C@@H](OC(F)(F)F)C4)o3)(C1)C2` [Form D, 2-(4-chlorophenoxy)-N-[3-[5-[cis-3-(trifluoromethoxy)cyclobutyl]-1,3,4-oxadiazol-2-yl]-1-bicyclo[1.1.1]pentanyl]acetamide], for which the “storage stability of form” value in [9] (standing at room temperature or higher (25° C.-50° C.) for several days) is “convert to Form C”; in data set [9] (stored at 5° C.) it was “stable for 7 days”; in [9] (stored at RT-60° C., 7 days), “converted to Form C”.
